The values that follow come from patent US20240140958A1, “FUSED QUADRACYCLIC COMPOUNDS, COMPOSITIONS AND USES THEREOF” (Tabomedex Biosciences, Inc., priority 2021, published 2024).

One may read the IC50 as the concentration that gives 50% inhibition.

The target in test [1] is T1, MAPKAPK2 Recombinant Human Protein (Homo sapiens, UniProt P49137).
T1 construct: purchased ThermoFisher pv3317
Kind of test: MK2 kinase assay (Z'-LYTE kinase assay kit). To be noted: inhibition of MK2 biochemical activity; 90 min incubation at room temperature. In outline: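 Z'-LYTE FRET assay with recombinant human MAPKAPK2 and peptide substrate; compound and ATP added, kinase reaction 90 min at room temperature, then development 60 min before stop. Coumarin (445 nm) and fluorescein (520 nm) emissions read at 400 nm excitation.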

Another test concerns THP-1 cells. Kind of test: THP-1 cell assay: LPS-stimulated pSer78-Hsp27 ELISA. The format is cell-based. The settings on record: Homo sapiens, PMA-differentiated THP-1 cells, compound 60 min before 20 ng/mL LPS for 30 min. In outline: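 PMA-differentiated THP-1 cells (20 ng/mL PMA 24 h, then 48 h recovery) pretreated with compound 60 min, then stimulated with 20 ng/mL LPS for 30 min. Lysates (~2.5 μg/well) assayed by sandwich ELISA for pSer78-Hsp27, absorbance at 450 nm.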
On the technique in general: In an ELISA, binding on a coated surface is turned into a signal by an enzyme label.

T1 sequence (P49137 whole entry): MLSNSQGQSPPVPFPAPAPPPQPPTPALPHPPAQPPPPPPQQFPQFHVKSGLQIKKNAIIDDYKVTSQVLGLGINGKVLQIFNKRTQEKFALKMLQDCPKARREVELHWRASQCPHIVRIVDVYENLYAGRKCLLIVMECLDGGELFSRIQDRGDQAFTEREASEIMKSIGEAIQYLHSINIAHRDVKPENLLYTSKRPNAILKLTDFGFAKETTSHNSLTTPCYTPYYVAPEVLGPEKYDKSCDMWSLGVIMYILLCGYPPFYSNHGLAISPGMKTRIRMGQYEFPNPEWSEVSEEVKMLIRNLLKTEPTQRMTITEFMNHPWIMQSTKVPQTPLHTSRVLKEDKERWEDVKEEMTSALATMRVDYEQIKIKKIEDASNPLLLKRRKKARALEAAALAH

As to `CN1CC(C)(CN2C(=O)CN(c3ccc4c(c3)Cn3cc(-c5ccc(C#N)cc5)cc3-c3nccn3-4)C2=O)C1` [Example 65, 4-(7-(3-((1,3-Dimethylazetidin-3-yl)methyl)-2,4-dioxoimidazolidin-1-yl)-9H-benzo[e]imidazo[2,1-c]pyrrolo[1,2-a][1,4]diazepin-12-yl)benzonitrile], the IC50 (in test [1]; with THP-1 cells) was below 50 nM each time.
Consider `CC(C)N1CC(NC(=O)c2ccc3c(c2)Cn2cc(-c4ccc(C#N)cc4)cc2-c2nccn2-3)C1` [Example 128], for which the figures for the half-inhibitory concentration (IC50) (in test [1]; in the test on THP-1 cells) were below 50 nM and 500 to 1000 nM, respectively.
